Reference: US20120252741A1, “NOVEL SEMI-SYNTHETIC GLYCOPEPTIDES AS ANTIBACTERIAL AGENTS” (priority 2008, published 2012)
Converted amounts (≈) assume the structure as drawn. Like-named read-outs stand apart in the source and are kept apart here. Values belong to the molecule of their own block, whether it stands above or below them.

Assays:
Format in all cases: cell-based
[1] = test system: Staphylococcus aureus 100 (ATCC 29213); assay: MIC, broth microdilution, SA 100; conditions: for MIC: Staphylococcus aureus
Description: (§1) Antibacterial activity in vitro is investigated by broth microdilution method in Meuller-Hinton broth as recommended by NCCLS. All strains tested are clinical isolates either sensitive or resistant to natural glycopeptides. MIC values were determined using the CLSI-recommended broth microdilution procedure (Clinical and Laboratory Standards Institute, Methods for Dilution Antimicrobial Susceptibility Tests for Bacteria That Grow Aerobically; Approved Standard-Seventh Edition.). Automated liquid handlers (Multidrop 384, Labsystems, Helsinki, Finland; Biomek 2000 and Multimek 96, Beckman Coulter, Fullerton Calif.) were used to conduct serial dilutions and liquid transfers. The MIC value for vancomycin is given for comparison. The abbreviations for organisms tested are as follow: SA 100—Staphylococcus aureus 100 (ATCC 29213); SA 757—Staphylococcus aureus 757 (MRSA); SA 2012—Staphylococcus aureus 2012 (VISA); SE 835—Staphylococcus epidermidis 835; SE 831—Staphylococcus epidermidis 831 (MRSE); EFc 101—Enterococcus faecalis 101 (ATCC 29212); EFc 848—Enterococcus faecalis 848 (VRE, Van A); EFcm 800—Enterococcus faecium 800; EFcm 752—Enterococcus faecium 752 (VRE, Van A); SPNE 1195—Streptococcus pneumoniae 1195 (ATCC 49619); SPY 712—Streptococcus pyogenes 712.

[2] = test system: Staphylococcus aureus 2012 (VISA); assay: MIC, broth microdilution, SA 2012
Description: as §1

Enterococcus faecium 800 = assay: MIC, broth microdilution, EFcm 800
Description: as §1

[3] = test system: Staphylococcus aureus 757 (MRSA); assay: MIC, broth microdilution, SA 757
Description: as §1

[4] = test system: Enterococcus faecalis 101 (ATCC 29212); assay: MIC, broth microdilution, EFc 101; conditions: for MIC: Enterococcus faecalis
Description: as §1

[5] = test system: Staphylococcus epidermidis 831 (MRSE); assay: MIC, broth microdilution, SE 831; conditions: for MIC: Staphylococcus epidermidis, read-out: MIC SE 831
Description: as §1

[6] = test system: Enterococcus faecalis 848 (VRE, Van A); assay: MIC, broth microdilution, EFc 848; conditions: for MIC: read-out: MIC E FC 848
Description: as §1

[7] = test system: Staphylococcus epidermidis 835; assay: MIC, broth microdilution, SE 835
Description: as §1

[8] = test system: Streptococcus pneumoniae 1195 (ATCC 49619); assay: MIC, broth microdilution, SPNE 1195; conditions: for MIC: Streptococcus pneumoniae
Description: as §1

[9] = test system: Streptococcus pyogenes 712; assay: MIC, broth microdilution, SPY 712
Description: as §1

[10] = test system: Enterococcus faecium 752 (VRE, Van A); assay: MIC, broth microdilution, EFcm 752; conditions: for MIC: read-out: MIC E FCM 752
Description: as §1

[11] = ATCC29213, Table 2, in the presence of 0.002% Polysorbate 80, class symbols, read-out: MIC SA 100
[12] = Table 2, in the presence of 0.002% Polysorbate 80, class symbols, read-out: MIC SA 2012
[13] = Enterococcus faecium, 800, Table 2, in the presence of 0.002% Polysorbate 80, class symbols, read-out: MIC E FCM 800
[14] = Table 2, in the presence of 0.002% Polysorbate 80, class symbols, read-out: MIC SA 757
[15] = ATCC29212, Table 2, in the presence of 0.002% Polysorbate 80, class symbols, read-out: MIC E FC 101
[16] = Table 2, in the presence of 0.002% Polysorbate 80, class symbols
[17] = Table 2, VRE, Van A, in the presence of 0.002% Polysorbate 80, class symbols
[18] = Staphylococcus epidermidis, 835, Table 2, in the presence of 0.002% Polysorbate 80, class symbols, read-out: MIC SE 835
[19] = ATCC49619, Table 2, in the presence of 0.002% Polysorbate 80, class symbols, read-out: MIC S PNE 1195
[20] = Streptococcus pyogenes, 712, Table 2, in the presence of 0.002% Polysorbate 80, class symbols, read-out: MIC S PYO 712
[21] = Table 2, in the presence of 0.002% Polysorbate 80, numeric value, comparison
[22] = Table 2, VRE, Van A, in the presence of 0.002% Polysorbate 80, numeric value, comparison

MIC [1, 11]: 1 to 2 mg/L | MIC [2, 12]: 1 to 2 mg/L | MIC (Enterococcus faecium 800; [13]): 0.01 to 0.5 mg/L | MIC [3, 14]: 1 to 2 mg/L | MIC [4, 15]: 0.5 to 1 mg/L | MIC [5, 16]: 0.01 to 0.5 mg/L | MIC [6, 17]: > 16 mg/L | MIC [7, 18]: 0.5 to 1 mg/L | MIC [8, 19]: 0.5 to 1 mg/L | MIC [9, 20]: 0.01 to 0.5 mg/L | MIC [10, 17]: 4 to 8 mg/L
SMILES: CNCCOc1ccc(C(=O)NC(=O)C[C@@H]2NC(=O)[C@H](NC(=O)[C@@H](CC(C)C)NC)[C@H](O)c3ccc(c(Cl)c3)Oc3cc4cc(c3O[C@@H]3O[C@H](CO)[C@@H](O)[C@H](O)[C@H]3O)Oc3ccc(cc3Cl)[C@@H](O)[C@@H]3NC(=O)[C@H](NC(=O)[C@@H]4NC2=O)c2ccc(O)c(c2)-c2c(O)cc(O)cc2[C@@H](C(=O)NC2C4CC5CC(C4)CC2C5)NC3=O)cc1OCCNC (some centres unmarked) [Compound 160]

SMILES: CN[C@H](CC(C)C)C(=O)N[C@H]1C(=O)N[C@@H](CC(N)=O)C(=O)N[C@H]2C(=O)N[C@H]3C(=O)N[C@H](C(=O)N[C@H](C(=O)O)c4cc(O)cc(O)c4-c4cc3ccc4O)[C@H](O)c3ccc(c(Cl)c3)Oc3cc2cc(c3O[C@@H]2O[C@H](CO)[C@@H](O)[C@H](O)[C@H]2O[C@H]2C[C@](C)(N)[C@H](O)[C@H](C)O2)Oc2ccc(cc2Cl)[C@H]1O [Vancomycin, vancomycin, reference compound]
MIC ([1]; ATCC29213, read-out: MIC SA 100): 1 mg/L (≈ 0.69 µM) | MIC SA 100 [1, 21]: 1 mg/L | MIC ([2]; read-out: MIC SA 2012, Table 1, numeric value, comparison): 8 mg/L (≈ 5.52 µM) | MIC ([2]; read-out: MIC SA 2012, Table 2, in the presence of 0.002% Polysorbate 80, numeric value, comparison): 4 mg/L | MIC (Enterococcus faecium 800; Enterococcus faecium, 800, read-out: MIC E FCM 800): 1 mg/L (≈ 0.69 µM) | MIC E FCM 800 (Enterococcus faecium 800; [21]): 1 mg/L | MIC ([3]; read-out: MIC SA 757, Table 1, numeric value, comparison): 1 mg/L (≈ 0.69 µM) | MIC ([3]; read-out: MIC SA 757, Table 2, in the presence of 0.002% Polysorbate 80, numeric value, comparison): 2 mg/L | MIC ([4]; ATCC29212, read-out: MIC E FC 101): 4 mg/L (≈ 2.76 µM) | MIC E FC 101 [4, 21]: 4 mg/L | MIC [5]: 2 mg/L (≈ 1.38 µM) | MIC SE 831 [5, 21]: 2 mg/L | MIC E FC 848 [6, 22]: >64 mg/L | MIC [6]: > 64 mg/L | MIC ([7]; Staphylococcus epidermidis, 835, read-out: MIC SE 835, Table 1, numeric value, comparison): 4 mg/L (≈ 2.76 µM) | MIC ([7]; Staphylococcus epidermidis, 835, read-out: MIC SE 835, Table 2, in the presence of 0.002% Polysorbate 80, numeric value, comparison): 2 mg/L | MIC ([8]; ATCC49619, read-out: MIC S PNE 1195): 0.25 mg/L (≈ 0.173 µM) | MIC S PNE 1195 [8, 21]: 0.25 mg/L | MIC ([9]; Streptococcus pyogenes, 712, read-out: MIC S PYO 712): 0.5 mg/L (≈ 0.345 µM) | MIC S PYO 712 [9, 21]: 0.5 mg/L | MIC E FCM 752 [10, 22]: >64 mg/L | MIC [10]: > 64 mg/L

SMILES: CCOc1ccc(C(=O)NC(=O)C[C@@H]2NC(=O)[C@H](NC(=O)[C@@H](CC(C)C)NC)[C@H](O)c3ccc(c(Cl)c3)Oc3cc4cc(c3O[C@@H]3O[C@H](CO)[C@@H](O)[C@H](O)[C@H]3O[C@H]3C[C@](C)(N)[C@H](O)[C@H](C)O3)Oc3ccc(cc3Cl)[C@@H](O)[C@@H]3NC(=O)[C@H](NC(=O)[C@@H]4NC2=O)c2ccc(O)c(c2)-c2c(O)cc(O)cc2[C@@H](C(=O)NC2C4CC5CC(C4)CC2C5)NC3=O)cc1 (some centres unmarked) [Compound 63]
MIC [1, 11]: 0.01 to 0.5 mg/L | MIC [2, 12]: 2 to 4 mg/L | MIC (Enterococcus faecium 800; [13]): 0.01 to 0.5 mg/L | MIC [3, 14]: 0.01 to 0.5 mg/L | MIC [4, 15]: 0.01 to 0.5 mg/L | MIC [5, 16]: 0.01 to 0.5 mg/L | MIC [6, 17]: 4 to 8 mg/L | MIC [7, 18]: 0.01 to 0.5 mg/L | MIC [8, 19]: 0.01 to 0.5 mg/L | MIC [9, 20]: 0.01 to 0.5 mg/L | MIC [10, 17]: 1 to 2 mg/L
